Measured values from article PMC11079024, “Identification of a family of species-selective complex I inhibitors as potential anthelmintics” (Nature Communications, 2024).
“And” between values parts separate entries of the source, which are not always exact repeats. Identical values can stand only once. Like-named read-outs stand apart in the source and are kept apart here.

Legend:
L1 wild-type C. elegans = conditions: for Relative Motility: relative to DMSO controls, single biological replicate
[1] = target: B. taurus (heart) complex I (Bos taurus, UniProt P03887+P17694+P42026); assay: biochemical; format: biochemical; conditions: heart mitochondria; read-out: B. taurus Complex I IC50
Method: Six 8–10-week-old C57Bl/6 female mice (Charles River) were freshly dissected, and their livers and hearts collected into separate 1.5 mL microcentrifuge tubes. Organs were flash-frozen in liquid nitrogen and stored at −80 °C prior to use. The heart of a freshly slaughtered adult cow was obtained from a local abattoir (Peel Sausage Inc.), chopped into ~1-inch cubes and collected into 50 mL falcon tubes. Falcon tubes were flash-frozen in a container of dry ice and stored at −80 °C prior to use. Isolation of mitochondria from all mammalian tissue was carried out following the protocol described above. However, due to size, the initial homogenization of tissue was performed by 15 strokes in a dounce homogenizer (mouse heart) or with several 5 s pulses in small Nutribullet blender (cow heart). All mouse protocols for mouse care and dissection were reviewed and approved by the University of Toronto Animal Care Committee, in accordance with the Canadian Council on Animal Care.
(§1) The enzymatic activities of individual ETC complexes (I-IV) were assessed spectrophotometrically in isolated mitochondria using a Varioskan LUX Multimode plate reader (ThermoFisher Scientific). Mitochondrial pellets previously isolated were thawed on ice and resuspended in ice-cold isolation buffer (250 mM sucrose, 10 mM Tris (pH 7.5), 1 mM EDTA). The BCA assay (Walker, 1994) was used to quantify the protein concentration of mitochondria suspensions; solutions were diluted to a concentration of 0.2 mg/mL for use in all assays. For the complex I assay, mitochondria pellets were freeze-thawed on ice three times to increase enzyme accessibility. […] 20 μL mitochondria suspension was then added/mixed with a pipette to initiate the reaction. Immediately following the addition of mitochondria, absorbance was measured (complex I and II: 600 nm; complex III and IV: 550 nm) in 30 s intervals over 15 min. Enzymatic activity was determined in each reaction by plotting absorbance versus time and calculating the slope of the curve during the initial linear phase of the reaction. […] Percent activity of each complex was calculated by dividing the enzyme-specific activity of each well by the enzyme-specific activity of the corresponding solvent controls.
(§2) Chemical solutions were prepared in complex I assay buffer composed of 25 mM KPi buffer (pH 7.5), 3 mg/mL bovine serum albumin (BSA), 80 μM NADH, 60 μM decylubiquinone, 160 μM DCIP, 2 μM antimycin A and 2 mM KCN.
For preliminary screens of hit compounds, compounds were screened at 100 μM; data are the average of at least three biological replicates. The complex I and II activity assays were used for additional dose-response experiments. […] For dose responses of benzimidazole analogs, data represent the average of two biological replicates. For all other dose-responses, data represent the average of at least three biological replicates.

[2] = target: C. elegans (N2) complex I (NADH:ubiquinone oxidoreductase) (Caenorhabditis elegans, UniProt P24887+Q93873+Q94360); assay: biochemical; format: biochemical; conditions: for percent (%) in vitro complex I activity relative to solvent control: mitochondria
Method: Mitochondria were isolated from the following free-living nematode strains: C. elegans—N2, CB3474, ECA882, ECA917, ECA1075, ECA1080; C. briggsae—AF16; P. pacificus—PS312; and P. hermaphrodita—B178. With the exception of the P. hermaphrodita strain B178, adult worms of each strain were grown in bulk through liquid culture to obtain mitochondria in sufficient quantities. Due to poor growth in liquid media, mixed stage populations of P. hermaphrodita were washed off and collected from NGM plates seeded with OP50. The isolation of mitochondria from all free-living nematode strains followed the protocol previously outlined in Burns et al.[24]. In brief, a 1 L saturated culture of E. coli HB101 was concentrated 20-fold in 50 mL complete S-medium. ~500,000 L1 worms synchronized from an embryo preparation performed the day prior were added to the S-media/HB101 suspension and grown to adulthood over the course of 3.5 days at 20 °C with shaking at 165 rpm. Following growth, worms were collected in 10 ×15 mL conical tubes and washed 7 times in M9 buffer. Worm suspensions were then combined into a single 15 mL conical tube and diluted to a final volume of 15 mL with M9 buffer. 1 mL aliquots of worm suspension were then distributed to 15 × 1.5 mL screw-cap microcentrifuge tubes and were pelleted at 500 g for 1 min. Excess M9 was aspirated without disturbing the worm pellet. 600 μL ice-cold isolate buffer A (250 mM sucrose, 10 mM Tris (pH 7.5), 1 mM EDTA, 1 mM PMSF (freshly prepared)) and 300 μL cold glass beads were then added to each tube. Tubes were incubated on ice for 10 min, and the worms were then lysed by bead beating (6 x 30 s, with 1 min cooling intervals). Tubes containing worm lysate were centrifuged at 1,000 g for 10 min at 4 °C and the supernatant was transferred to 15 new microcentrifuge tubes on ice. The tubes were centrifuged a second time at 1,000 g for 10 min at 4 °C and the supernatant was once again transferred to 15 new microcentrifuge tubes on ice. These tubes were then centrifuged at 16,000 g for 10 min at 4 °C. The resulting mitochondrial pellet was washed twice by re-suspension in 300 μL of ice-cold isolate buffer B (250 mM sucrose, 10 mM Tris (pH 7.5), 1 mM EDTA). Following the final wash, isolation buffer was aspirated from each tube and the pellets were flash-frozen in ethanol/dry ice and stored at −80 °C until needed.
as §1, §2
For preliminary screens of hit compounds, compounds were screened at 100 μM; data are the average of at least three biological replicates.

[3] = 50 μM, hit = relative motility below 0.25 3 hours after removal of KCN
[4] = 50 μM, worm motility 3 hours after removal of KCN
[5] = active or inactive at 50 μM in C. elegans assay of RQ-dependent metabolism
[6] = active (hit) or inactive (non) at 50 μM in C. elegans assay of RQ-dependent metabolism
[7] = 50 μM, KCN survival assay, hit = relative motility below 0.25
[8] = 50 μM, worm motility 3 hours after the removal of KCN (endpoint)
[9] = 50 μM, hit = relative motility below 0.25 3 hours after the removal of KCN
[10] = read-out: percent (%) in vitro complex I activity relative to solvent control

C. elegans (N2) complex I (NADH:ubiquinone oxidoreductase), sequence (Q94360 17-199): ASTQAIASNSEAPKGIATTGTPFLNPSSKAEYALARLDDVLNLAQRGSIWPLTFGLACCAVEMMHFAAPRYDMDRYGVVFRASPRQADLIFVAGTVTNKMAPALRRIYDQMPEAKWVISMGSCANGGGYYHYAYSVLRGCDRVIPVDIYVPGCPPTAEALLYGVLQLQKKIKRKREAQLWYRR
C. elegans (N2) complex I (NADH:ubiquinone oxidoreductase), sequence (P24887 whole entry): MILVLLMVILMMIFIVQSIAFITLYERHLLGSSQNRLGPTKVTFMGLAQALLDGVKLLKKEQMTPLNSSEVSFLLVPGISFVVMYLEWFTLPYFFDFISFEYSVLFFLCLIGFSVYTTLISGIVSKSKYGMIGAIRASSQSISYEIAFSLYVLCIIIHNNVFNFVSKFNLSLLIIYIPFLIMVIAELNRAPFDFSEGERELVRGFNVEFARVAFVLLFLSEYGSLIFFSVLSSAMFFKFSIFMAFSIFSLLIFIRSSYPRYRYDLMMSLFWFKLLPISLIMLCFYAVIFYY
C. elegans (N2) complex I (NADH:ubiquinone oxidoreductase), sequence (Q93873 31-482): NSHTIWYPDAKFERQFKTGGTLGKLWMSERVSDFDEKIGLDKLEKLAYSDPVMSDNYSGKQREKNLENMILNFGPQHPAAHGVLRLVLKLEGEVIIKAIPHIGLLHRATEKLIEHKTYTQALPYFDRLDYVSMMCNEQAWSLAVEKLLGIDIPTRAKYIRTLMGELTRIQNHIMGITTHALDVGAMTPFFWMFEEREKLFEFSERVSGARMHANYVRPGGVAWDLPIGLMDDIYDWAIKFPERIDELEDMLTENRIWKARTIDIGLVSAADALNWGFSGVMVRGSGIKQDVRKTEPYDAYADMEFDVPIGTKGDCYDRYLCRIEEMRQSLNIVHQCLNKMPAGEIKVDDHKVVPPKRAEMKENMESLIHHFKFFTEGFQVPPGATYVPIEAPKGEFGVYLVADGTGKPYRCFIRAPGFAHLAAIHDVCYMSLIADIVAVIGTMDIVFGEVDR
B. taurus (heart) complex I, sequence (P03887 whole entry): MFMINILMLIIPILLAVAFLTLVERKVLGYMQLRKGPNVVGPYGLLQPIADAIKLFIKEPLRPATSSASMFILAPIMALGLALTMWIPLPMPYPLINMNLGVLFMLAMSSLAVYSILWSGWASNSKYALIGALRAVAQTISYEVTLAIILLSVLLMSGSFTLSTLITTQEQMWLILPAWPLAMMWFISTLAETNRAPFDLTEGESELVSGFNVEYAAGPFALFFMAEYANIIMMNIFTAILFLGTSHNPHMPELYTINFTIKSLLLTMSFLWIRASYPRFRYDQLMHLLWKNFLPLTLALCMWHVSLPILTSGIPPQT
B. taurus (heart) complex I, sequence (P17694 34-463): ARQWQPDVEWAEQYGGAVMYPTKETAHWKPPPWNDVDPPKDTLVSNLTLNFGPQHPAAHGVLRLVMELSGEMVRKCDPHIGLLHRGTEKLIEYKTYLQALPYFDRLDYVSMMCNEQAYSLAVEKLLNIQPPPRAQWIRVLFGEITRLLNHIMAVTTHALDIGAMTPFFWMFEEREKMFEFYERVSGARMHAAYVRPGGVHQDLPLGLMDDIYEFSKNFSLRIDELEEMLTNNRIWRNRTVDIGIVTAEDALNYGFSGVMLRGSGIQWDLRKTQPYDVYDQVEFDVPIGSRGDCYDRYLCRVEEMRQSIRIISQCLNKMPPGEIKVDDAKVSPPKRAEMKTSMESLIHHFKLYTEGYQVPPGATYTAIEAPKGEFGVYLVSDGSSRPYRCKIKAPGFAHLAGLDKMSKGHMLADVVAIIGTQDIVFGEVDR
B. taurus (heart) complex I, sequence (P42026 38-216): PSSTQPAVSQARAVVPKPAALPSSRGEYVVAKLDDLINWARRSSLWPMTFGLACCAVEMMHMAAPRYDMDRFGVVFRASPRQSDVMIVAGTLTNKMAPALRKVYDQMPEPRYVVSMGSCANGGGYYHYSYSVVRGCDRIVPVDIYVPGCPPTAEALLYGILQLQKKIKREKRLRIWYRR

CCOc1ccc(CNc2nc3ccccc3n2CCN(CC)CC)cc1 [Compound 7768813]
Screen "Hit" (L1 wild-type C. elegans; [3]): Y (hits were identified as compounds that reduced relative motility below 0.25 (75% reduction)) | Relative Motility (L1 wild-type C. elegans; [4]): 0.210

COc1ccc(CSc2nc3ccccc3[nH]2)cc1 [Compound 5568705]
Screen "Hit" (L1 wild-type C. elegans; [3]): Y (hits were identified as compounds that reduced relative motility below 0.25 (75% reduction)) | Relative Motility (L1 wild-type C. elegans; [4]): 0.100

Cn1c(NCc2cccc(Br)c2)nc2ccccc21 [Compound 7766492]
Screen "Hit" (L1 wild-type C. elegans; [3]): Y (hits were identified as compounds that reduced relative motility below 0.25 (75% reduction)) | Relative Motility (L1 wild-type C. elegans; [4]): 0.130

CCn1c(NCc2cccc(Br)c2)nc2ccccc21 [Compound 7746308]
Screen "Hit" (L1 wild-type C. elegans; [3]): Y (hits were identified as compounds that reduced relative motility below 0.25 (75% reduction)) | Relative Motility (L1 wild-type C. elegans; [4]): 0.200

CCC(C)c1ccccc1OCCn1cnc2ccccc21 (stereo not drawn) [Compound 7925137]
Screen "Hit" (L1 wild-type C. elegans; [3]): Y (hits were identified as compounds that reduced relative motility below 0.25 (75% reduction)) | Relative Motility (L1 wild-type C. elegans; [4]): 0.220

COC(=O)c1ccc(OCC(O)Cn2c(C)nc3ccccc32)cc1 (stereo not drawn) [Compound 5929389]
Hit (L1 wild-type C. elegans; [5]): non

Nc1ccc(Oc2ccc(-c3nc4ccccc4[nH]3)cc2)cc1 [Compound 5747231]
Screen "Hit" (L1 wild-type C. elegans; [3]): Y (hits were identified as compounds that reduced relative motility below 0.25 (75% reduction)) | Relative Motility (L1 wild-type C. elegans; [4]): 0.130

c1ccc2c(c1)ncn2CCOc1ccc2c(c1)CCC2 [Compound 7925762]
Screen "Hit" (L1 wild-type C. elegans; 50 μM compound, hit = relative motility below 0.25 3 hours after removal of KCN): Y (hits were identified as compounds that reduced relative motility below 0.25 (75% reduction)) | Relative Motility (L1 wild-type C. elegans; 50 μM compound, worm motility 3 hours after removal of KCN): 0.250

Cc1ccccc1Cn1cnc2ccccc21 [Compound 5656207]
Hit (L1 wild-type C. elegans; [5]): non

Cc1nn(C)c(Oc2ccccc2)c1C=NOCc1ccc(C(=O)OC(C)(C)C)cc1 [Fenpyroximate, reference compound]
IC50 [1]: 48 nM | IC50 ([2]; wild-type (N2) mitochondria, read-out: C. elegans Complex I IC50): 21 nM

c1ccc(Cn2c(-c3cncs3)nc3ccccc32)cc1 [Compound 7815425]
Hit (L1 wild-type C. elegans; [6]): non

Cc1ccc(C(C)C)cc1OCC(O)Cn1c(C)nc2ccccc21 (stereo not drawn) [Compound 7748492]
Screen "Hit" (L1 wild-type C. elegans; [3]): Y (hits were identified as compounds that reduced relative motility below 0.25 (75% reduction)) | Relative Motility (L1 wild-type C. elegans; [4]): 0.220

N#Cc1ccc(CSc2nc3ccc(Br)cc3[nH]2)cc1 [Compound 6726033]
Screen "Hit" (L1 wild-type C. elegans; [3]): Y (hits were identified as compounds that reduced relative motility below 0.25 (75% reduction)) | Relative Motility (L1 wild-type C. elegans; [4]): 0.140

Cn1c(/C=C/c2ccc(Cl)cc2)nc2ccccc21 [Compound 5663561]
Screen "Hit" (L1 wild-type C. elegans; [7]): Y (hits were identified as compounds that reduced relative motility below 0.25 (75% reduction)) | Relative Motility (L1 wild-type C. elegans; [8]): 0.220

CCn1c(/C=C/c2ccccc2)nc2ccccc21 [Compound 5958035]
Screen "Hit" (L1 wild-type C. elegans; [7]): Y (hits were identified as compounds that reduced relative motility below 0.25 (75% reduction)) | Relative Motility (L1 wild-type C. elegans; [8]): 0.160

Brc1cc2nc[nH]c2c2ccccc12 [Compound 7873254]
Screen "Hit" (L1 wild-type C. elegans; [9]): Y (hits were identified as compounds that reduced relative motility below 0.25 (75% reduction))

CCN(CC)CCSc1nc2ccccc2n1Cc1ccccc1 [Compound 5685018]
Screen "Hit" (L1 wild-type C. elegans; [7]): Y (hits were identified as compounds that reduced relative motility below 0.25 (75% reduction)) | Relative Motility (L1 wild-type C. elegans; [8]): 0.220

Fc1cccc(F)c1CSc1nc2ccccc2[nH]1 [Compound 5616951]
Screen "Hit" (L1 wild-type C. elegans; [3]): Y (hits were identified as compounds that reduced relative motility below 0.25 (75% reduction)) | Relative Motility (L1 wild-type C. elegans; [4]): 0.130

CCOc1ccc(CNc2nc3ccccc3n2CC)cc1 [Compound 7758171]
Screen "Hit" (L1 wild-type C. elegans; [3]): Y (hits were identified as compounds that reduced relative motility below 0.25 (75% reduction)) | Relative Motility (L1 wild-type C. elegans; [4]): 0.180

CCCc1nc2ccccc2n1Cc1ccc(C)cc1 [Compound 6607958]
Screen "Hit" (L1 wild-type C. elegans; [7]): Y (hits were identified as compounds that reduced relative motility below 0.25 (75% reduction)) | Relative Motility (L1 wild-type C. elegans; [8]): 0.120

CCCSc1ccc2nc(NC(=O)OC)[nH]c2c1 [Albendazole]
percent (%) in vitro complex I activity relative to solvent control ([2]; 0.125 µM): 118.853% and 109.086% and 106.962% | percent (%) in vitro complex I activity relative to solvent control ([2]; 0.313 µM): 114.037% and 108.086% and 98.922% | percent (%) in vitro complex I activity relative to solvent control ([2]; 0.625 µM): 95.184% and 91.388% and 110.521% | percent (%) in vitro complex I activity relative to solvent control ([2]; 1.5 µM): 96.241% and 104.509% and 111.883% | percent (%) in vitro complex I activity relative to solvent control ([2]; 3 µM): 99.535% and 109.848% and 112.347% | percent (%) in vitro complex I activity relative to solvent control ([2]; 15 µM): 97.910% and 114.555% and 112.953% | percent (%) in vitro complex I activity relative to solvent control ([2]; 37.5 µM): 89.237% and 107.533% and 106.445% | percent (%) in vitro complex I activity relative to solvent control ([2]; 75 µM): 100.906% and 79.462% and 105.930% and 106.268% | remaining activity at 0.125 µM [2, 10]: 103% | remaining activity at 0.313 µM [2, 10]: 104% | remaining activity at 0.625 µM [2, 10]: 102% | remaining activity at 1.5 µM [2, 10]: 109% | remaining activity at 3 µM [2, 10]: 106% | remaining activity at 15 µM [2, 10]: 106% | remaining activity at 37.5 µM [2, 10]: 105% | remaining activity at […] [2, 10]: 108%

CCCOc1ccc(Cn2c(CO)nc3ccccc32)cc1 [Compound 7356999]
Hit (L1 wild-type C. elegans; [5]): non

CC(C)CCSc1nc2ccccc2[nH]1 [Compound 5867913]
Screen "Hit" (L1 wild-type C. elegans; [9]): Y (hits were identified as compounds that reduced relative motility below 0.25 (75% reduction)) | Relative Motility (L1 wild-type C. elegans; [8]): 0.150

FC(OC(F)(F)F)c1nc2ccc(Cl)cc2[nH]1 (stereo not drawn) [Compound 5119407]
Hit (L1 wild-type C. elegans; [6]): non

CCn1c(C)nc2cc(-c3ccccc3)ccc21 [Compound 5160815]
Screen "Hit" (L1 wild-type C. elegans; [9]): Y (hits were identified as compounds that reduced relative motility below 0.25 (75% reduction)) | Relative Motility (L1 wild-type C. elegans; [8]): 0.085

C=CCn1c(/C=C/c2ccccc2OC)nc2ccccc21 [Compound 7121977]
Screen "Hit" (L1 wild-type C. elegans; [7]): Y (hits were identified as compounds that reduced relative motility below 0.25 (75% reduction)) | Relative Motility (L1 wild-type C. elegans; [8]): 0.140
